# Reference: PMC11640419, “New Synthetic Analogs of Natural 5Z,9Z-Dienoic Acids—Hybrid Molecules Based on Oleanolic Acid: Synthesis and Study of Antitumor Activity” (Cancers, 2024)
# Like-named read-outs stand apart in the source and are kept apart here.
# What was measured:
# Type in all cases: cell-based, human
# Jurkat cells [1] = assay: MILLIPLEX MAP Early Apoptosis 7-plex Magnetic Bead Kit (Luminex); settings: 6 h; for Casp 8 protein level: activated caspase-8
# Description: (§1) In this study, we employed Luminex technology (MILLIPLEX® MAP 7-plex DNA Damage/Genotoxicity Magnetic Bead Kit and MILLIPLEX® MAP Early Apoptosis 7-plex Magnetic Bead Kit) to analyze protein analytes in Jurkat cell lysates. […] The Luminex xMAP intracellular protein assay is a multiplex multiparameter assay that employs a multiplex of fluorescent-labeled antibodies and magnetic particles to enhance the sensitivity, dynamic range, and accuracy of the analytical method. Luminex technology is employed to identify the proteins of interest present in each well. The mean fluorescence intensity (MFI) of each measured protein is then converted to its concentration (pg·mL^−1) using specialized software and standard curves.
# (§2) The test substances were incubated with the cells at two concentrations, […], for a period of six hours. […] Following exposure, approximately 1 × 10⁶ cells from each well were transferred to 0.5-mL tubes (Eppendorf, Hamburg, Germany) and washed with PBS. Subsequently, the PBS was removed, 10 μL of lysis buffer (Cell Signaling Buffer and Detection Kit, Luminex, Austin, TX, USA) supplemented with 2 × protease and phosphatase inhibitors (Luminex, USA) was added, and the mixture was shaken for 30 s. A cocktail of fluorescence-encoded magnetic bead microspheres (MagPlex®, Luminex, USA) was resuspended and treated with ultrasound. Subsequently, 70 μL of this cocktail, 70 μL of protein standard, and 70 μL of the test sample were added to the wells of a 96-well microplate and incubated for 2 h at room temperature with stirring on an orbital shaker at 700–850 rpm. A magnetic plate was firmly attached to the bottom of a 96-well plate, and all wells were washed three times with 100 μL of wash buffer (Cell Signaling Buffer and Detection Kit, Luminex, USA) added to each well to remove unbound particles. Subsequently, 50 μL of […] to each well, and the samples were incubated for one hour at 4 °C on an orbital shaker set at 700–850 rpm. Subsequently, the samples were washed once more to remove any unbound antibodies. Afterwards, 70 μL of streptavidin-phycoerythrin (streptavidin-PE) (Luminex, USA) was added to each well and incubated for 30 min at room temperature on a shaker at 600 rpm. Subsequently, the samples were washed with streptavidin-PE and resuspended in 100 μL of wash buffer for a period of 2 min on a shaker at 800 rpm. The data were analyzed using the Milliplex Analyst 5.1 software (EMD Millipore, Billerica, MA, USA).
# Jurkat = assay: Cytotoxicity assay (7-AAD, flow cytometry)
# Experimental: (§3) The human cell lines Jurkat, K562, U937, and HEK293 were obtained from the European Collection of Authenticated Cell Cultures (ECACC) and subsequently cultured in accordance with established standard protocols and sterile techniques. […] Subsequently, the cells were seeded into 24-well plates at a density of 5 × 10^4 cells per well and incubated for 12 h (Jurkat, K562, U937) and 24 h (HEK293).
# (§4) The viability of the cells was evaluated through the utilization of the 7-AAD (7-aminoactinomycin D) dye (eBioscience™, San Diego, CA, USA). Following a 24 h incubation period with the test substances, the cells were washed with phosphate-salt buffer (PBS) and centrifuged at 400× g for five minutes. […] Subsequently, all cell samples were subjected to analysis on a NovoCyte Penteon flow cytometer (Agilent, Santa Clara, CA, USA).
# Jurkat cells [2] = assay: MILLIPLEX MAP 7-plex DNA Damage/Genotoxicity Magnetic Bead Kit (Luminex)
# Description: as §1, §2
# [3] = Cytotoxicity assay (7-AAD, flow cytometry); settings: human
# Experimental: (§5) The human cell lines Jurkat, K562, U937, and HEK293 were obtained from the European Collection of Authenticated Cell Cultures (ECACC) and subsequently cultured in accordance with established standard protocols and sterile techniques. The cells were maintained in RPMI 1640 (for Jurkat, K562, and U937) or DMEM (for HEK293) medium, both of which were supplemented with […], 10% FBS (Sigma, Kanagawa, Japan), and 100 units/mL penicillin-streptomycin (Sigma). Subsequently, the cells were seeded into 24-well plates at a density of 5 × 10^4 cells per well and incubated for 12 h (Jurkat, K562, U937) and 24 h (HEK293).
# (§6) The viability of the cells was evaluated through the utilization of the 7-AAD (7-aminoactinomycin D) dye (eBioscience™, San Diego, CA, USA). Following a 24 h incubation period with the test substances, the cells were washed with phosphate-salt buffer (PBS) and centrifuged at 400× g for five minutes. The precipitate was resuspended in 200 μL of flow cytometry buffer (PBS without calcium and magnesium, 2.5% FBS) and incubated with a 1 mM 7-AAD dye solution for 15 min in the dark at room temperature. Subsequently, all cell samples were subjected to analysis on a NovoCyte Penteon flow cytometer (Agilent, Santa Clara, CA, USA).
# [4] = Cytotoxicity assay (7-AAD, flow cytometry); settings: human, Jurkat cells; Jurkat, 24 h incubation
# Experimental: as §3, §4
# Jurkat cells [5] = assay: Cell cycle analysis (MAK344 kit, flow cytometry); settings: compound at CC50, 24 h
# Experimental: Cell cycle analysis was performed using the MAK344 cell cycle assay kit (Sigma-Aldrich, St. Louis, MO, USA). Immediately after incubation with the tested compounds for 24 h, cells were gently washed with ice-cold phosphate-buffered saline (PBS) and centrifuged at 450× g for 5 min. After removing the supernatant, the cell precipitate was resuspended and fixed with 70% ethanol with continuous shaking on ice, and then stored at −18 degrees Celsius for 24 h. Prior to staining, the cells were washed with ice-cold PBS, and then 0.5 mL of the Cell Cycle Assay Kit working solution was added to the cell suspension at room temperature in the dark according to the working protocol. Samples were then analyzed on a NovoCyte Penteon flow cytometer (Agilent, USA).
# HEK293 = assay: Cytotoxicity assay (7-AAD, flow cytometry); settings: Homo sapiens; HEK293, abstract
# Experimental: as §5, §6
# K562 = assay: Cytotoxicity assay (7-AAD, flow cytometry); settings: Homo sapiens; K562, abstract
# Experimental: as §5, §6
# U937 = assay: Cytotoxicity assay (7-AAD, flow cytometry); settings: Homo sapiens, U-937; U937, abstract
# Experimental: as §5, §6
# [6] = at CC50 (anisomycin at IC50 0.192 μmol/L), AKT/PKB (S473)
# [7] = at CC50 (anisomycin at IC50 0.192 μmol/L), BAD (S112)
# [8] = at CC50 (anisomycin at IC50 0.192 μmol/L), BCL-2 (S70)
# [9] = at CC50 (anisomycin at IC50 0.192 μmol/L), JNK/SAPK1 (T183/Y185)
# [10] = at CC50 (anisomycin at IC50 0.192 μmol/L)
# [11] = at CC50 (anisomycin at IC50 0.192 μmol/L), activated caspase-9
# [12] = at CC50 (anisomycin at IC50 0.192 μmol/L), p53 (S46), apoptosis panel
# [13] = 6 h, at CC50 (anisomycin at IC50 0.192 μmol/L), ATR (total)
# [14] = 6 h, at CC50 (anisomycin at IC50 0.192 μmol/L), CHK1 (S345)
# [15] = 6 h, at CC50 (anisomycin at IC50 0.192 μmol/L), CHK2 (T68)
# [16] = 6 h, at CC50 (anisomycin at IC50 0.192 μmol/L), H2AX (S139)
# [17] = 6 h, at CC50 (anisomycin at IC50 0.192 μmol/L), MDM2 (total)
# [18] = 6 h, at CC50 (anisomycin at IC50 0.192 μmol/L), p21 (total)
# [19] = 6 h, at CC50 (anisomycin at IC50 0.192 μmol/L), p53 (S15), genotoxicity panel
# [20] = HEK293 cells, HEK293, 24 h incubation
# [21] = K562 cells, K562, 24 h incubation
# [22] = U937 cells, U937, 24 h incubation
smiles,measurement,setting,value
"COc1ccc(C[C@H]2NC[C@H](O)[C@H]2OC(C)=O)cc1 [Anisomycin, anisomycin, reference compound]",Akt protein level,Jurkat cells [1]; [6],129 % of control
same,Bad protein level,Jurkat cells [1]; [7],486 % of control
same,Bcl-2 protein level,Jurkat cells [1]; [8],3180 % of control
same,JNK protein level,Jurkat cells [1]; [9],357 % of control
same,Casp 8 protein level,Jurkat cells [1]; [10],1229 % of control
same,Casp9 protein level,Jurkat cells [1]; [11],9353 % of control
same,p53 protein level,Jurkat cells [1]; [12],17 % of control
same,IC50,"Jurkat; Jurkat cells, concentration used for the control compound, read-out: IC50",192 nM
same,ATR protein level,Jurkat cells [2]; [13],440 % of control
same,Chk1 protein level,Jurkat cells [2]; [14],610 % of control
same,Chk2 protein level,Jurkat cells [2]; [15],20836 % of control
same,H2A.X protein level,Jurkat cells [2]; [16],1841 % of control
same,MDM2 protein level,Jurkat cells [2]; [17],367 % of control
same,p21 protein level,Jurkat cells [2]; [18],3727 % of control
same,p53 protein level,Jurkat cells [2]; [19],738 % of control
"CC[C@@]1(O)C(=O)OCc2c1cc1n(c2=O)Cc2cc3ccccc3nc2-1 [CPT, camptothecin, reference compound]",CC50 at 24 h,[3]; [20],0.692 ± 0.0536 µM
same,CC50 at 24 h,[3]; [21],0.595 ± 0.0544 µM
same,CC50 at 24 h,[3]; [22],0.522 ± 0.0444 µM
same,Akt protein level,Jurkat cells [1]; [6],196 % of control
same,Bad protein level,Jurkat cells [1]; [7],516 % of control
same,Bcl-2 protein level,Jurkat cells [1]; [8],580 % of control
same,JNK protein level,Jurkat cells [1]; [9],141 % of control
same,Casp 8 protein level,Jurkat cells [1]; [10],209 % of control
same,Casp9 protein level,Jurkat cells [1]; [11],10289 % of control
same,p53 protein level,Jurkat cells [1]; [12],132 % of control
same,CC50 at 24 h,[4],0.588 ± 0.0462 µM
same,ATR protein level,Jurkat cells [2]; [13],263 % of control
same,Chk1 protein level,Jurkat cells [2]; [14],52 % of control
same,Chk2 protein level,Jurkat cells [2]; [15],5800 % of control
same,H2A.X protein level,Jurkat cells [2]; [16],957 % of control
same,MDM2 protein level,Jurkat cells [2]; [17],1417 % of control
same,p21 protein level,Jurkat cells [2]; [18],170654 % of control
same,p53 protein level,Jurkat cells [2]; [19],17285 % of control
CC(=O)O[C@H]1CC[C@@]2(C)C(CC[C@]3(C)C2CC=C2C4CC(C)(C)CC[C@]4(C(=O)Nc4ccnn4C)CC[C@]23C)C1(C)C (stereo partly drawn) [compound 7a],cell population in the S-phase (Freq S),Jurkat cells [5],48.89%
same,percentage of cells in the G2/M phase (Freq G2),Jurkat cells [5],1.91%
same,CC50 at 24 h,[3]; [20],58.4 ± 6.02 µM
same,CC50 at 24 h,[3]; [21],17.7 ± 1.39 µM
same,CC50 at 24 h,[3]; [22],14.4 ± 1.04 µM
same,CC50 at 24 h,[4],22.1 ± 1.96 µM
Cn1nccc1NC(=O)[C@]12CCC(C)(C)C[C@H]1C1=CC[C@@H]3[C@@]4(C)CC[C@H](OC(=O)CCC/C=C\CC/C=C\CCCC(=O)O)C(C)(C)[C@@H]4CC[C@@]3(C)[C@]1(C)CC2 [compound 9a],cell population in the S-phase (Freq S),Jurkat cells [5],46.10%
same,percentage of cells in the G2/M phase (Freq G2),Jurkat cells [5],3.96%
same,percentage of cells in the pre-G0 phase (Freq Sub-G1),Jurkat cells [5],8.67%
same,IC50,HEK293,26.2 µM
same,CC50 at 24 h,[3]; [20],26.2 ± 1.93 µM
same,CC50 at 24 h,[3]; [21],3.09 ± 0.34 µM
same,CC50 at 24 h,[3]; [22],2.85 ± 0.34 µM
same,IC50,K562,3.1 µM
same,IC50,U937,2800 nM
same,Akt protein level,"Jurkat cells [1]; at 0,5CC50",15 % of control
same,Bad protein level,"Jurkat cells [1]; at 0,5CC50",106 % of control
same,Bcl-2 protein level,"Jurkat cells [1]; at 0,5CC50",140 % of control
same,Casp9 protein level,"Jurkat cells [1]; at 0,5CC50",1144 % of control
same,JNK protein level,"Jurkat cells [1]; at 0,5CC50",78 % of control
same,p53 protein level,"Jurkat cells [1]; at 0,5CC50, apoptosis panel",112 % of control
same,Bad protein level,Jurkat cells [1]; [7],55 % of control
same,Bcl-2 protein level,Jurkat cells [1]; [8],20 % of control
same,JNK protein level,Jurkat cells [1]; [9],106 % of control
same,Casp 8 protein level,Jurkat cells [1]; [10],17 % of control
same,Casp9 protein level,Jurkat cells [1]; [11],1341 % of control
same,p53 protein level,Jurkat cells [1]; [12],160 % of control
same,IC50,"Jurkat; Homo sapiens, Jurkat, abstract, read-out: IC50 Jurkat",4500 nM
same,CC50 at 24 h,[4],4.51 ± 0.41 µM
same,ATR protein level,"Jurkat cells [2]; 6 h, at 0,5CC50",119 % of control
same,Chk1 protein level,"Jurkat cells [2]; 6 h, at 0,5CC50",97 % of control
same,Chk2 protein level,"Jurkat cells [2]; 6 h, at 0,5CC50",645 % of control
same,H2A.X protein level,"Jurkat cells [2]; 6 h, at 0,5CC50",2485 % of control
same,MDM2 protein level,"Jurkat cells [2]; 6 h, at 0,5CC50",115 % of control
same,p21 protein level,"Jurkat cells [2]; 6 h, at 0,5CC50",318 % of control
same,p53 protein level,"Jurkat cells [2]; 6 h, at 0,5CC50, genotoxicity panel",52 % of control
same,level of phosphorylated H2A.X in comparison to the control compound camptothecin,"Jurkat cells [2]; 6 h, at 0.5CC50",~3.5 fold
same,ATR protein level,Jurkat cells [2]; [13],131 % of control
same,Chk1 protein level,Jurkat cells [2]; [14],144 % of control
same,Chk2 protein level,Jurkat cells [2]; [15],936 % of control
same,H2A.X protein level,Jurkat cells [2]; [16],3173 % of control
same,MDM2 protein level,Jurkat cells [2]; [17],102 % of control
same,p21 protein level,Jurkat cells [2]; [18],390 % of control
same,p53 protein level,Jurkat cells [2]; [19],128 % of control
same,"phosphorylated H2A.X, marker of DNA double-strand breaks",Jurkat cells [2]; six hours,dose-dependent increase
